Our source for the aqueous solubility values is publication PMC7771325 (Journal of medicinal chemistry, 2020).

The series is described as follows: Aqueous solubility. The format is physicochemical. The following applies: resisted cocrystallization attempts.

For `Cn1cc(-c2[nH]c3cc(NC(=O)[C@H](N)C4CCCCC4)cc4c3c2C=NNC4=O)cn1` [PF-477736], the aqueous solubility entry was “low aqueous solubility”.
